Results: ChEMBL document CHEMBL1147878, “Synthesis and in vitro antimicrobial activity of new 2-[p-substituted-benzyl]-5-[substituted-carbonylamino]benzoxazoles” (2007)
Values after ≈ are worked out from the molar mass of the structure shown.

Assays:
Type in all cases: functional
Staphylococcus aureus = assay: Antibacterial activity against Staphylococcus aureus ATCC 25923 after 24 hrs by serial dilution method; details: ATCC 25923, 24 h
Bacillus subtilis = assay: Antibacterial activity against Bacillus subtilis ATCC 6633 after 24 hrs by serial dilution method; details: ATCC 6633, 24 h
Escherichia coli = assay: Antibacterial activity against Escherichia coli ATCC 23556 after 24 hrs by serial dilution method; details: ATCC 23556, 24 h
Pseudomonas aeruginosa = assay: Antibacterial activity against Pseudomonas aeruginosa ATCC 10145 after 24 hrs by serial dilution method; details: ATCC 10145, 24 h
Candida albicans = assay: Antifungal activity against Candida albicans after 48 hrs by serial dilution method
Pichia kudriavzevii = assay: Antifungal activity against Candida krusei ATCC 6258 after 48 hrs by serial dilution method; details: ATCC 6258, 48 h
Nakaseomyces glabratus = assay: Antifungal activity against Candida glabrata after 48 hrs by serial dilution method

Compound	MIC (Staphylococcus aureus)	MIC (Bacillus subtilis)	MIC (Escherichia coli)	MIC (Pseudomonas aeruginosa)	MIC (Candida albicans)	MIC (Pichia kudriavzevii)	MIC (Nakaseomyces glabratus)
O=C(Nc1ccc2oc(Cc3ccc(Cl)cc3)nc2c1)c1ccc([N+](=O)[O-])cc1	100 µg/mL (≈ 245 µM)	50 µg/mL (≈ 123 µM)	25 µg/mL (≈ 61.3 µM)	25 µg/mL (≈ 61.3 µM)	50 µg/mL (≈ 123 µM)	25 µg/mL (≈ 61.3 µM)	25 µg/mL (≈ 61.3 µM)
O=C(Nc1ccc2oc(Cc3ccc(Cl)cc3)nc2c1)c1ccc(Cl)c([N+](=O)[O-])c1	50 µg/mL (≈ 113 µM)	50 µg/mL (≈ 113 µM)	50 µg/mL (≈ 113 µM)	50 µg/mL (≈ 113 µM)	25 µg/mL (≈ 56.5 µM)	25 µg/mL (≈ 56.5 µM)	25 µg/mL (≈ 56.5 µM)
O=C(CSc1ccccc1)Nc1ccc2oc(Cc3ccc(Cl)cc3)nc2c1	100 µg/mL (≈ 245 µM)	100 µg/mL (≈ 245 µM)	100 µg/mL (≈ 245 µM)	100 µg/mL (≈ 245 µM)	50 µg/mL (≈ 122 µM)	25 µg/mL (≈ 61.1 µM)	50 µg/mL (≈ 122 µM)
O=C(Cc1ccccc1)Nc1ccc2oc(Cc3ccccc3)nc2c1	25 µg/mL (≈ 73 µM)	25 µg/mL (≈ 73 µM)	25 µg/mL (≈ 73 µM)	50 µg/mL (≈ 146 µM)	12.5 µg/mL (≈ 36.5 µM)	12.5 µg/mL (≈ 36.5 µM)	25 µg/mL (≈ 73 µM)
CC(C)(C)c1ccc(C(=O)Nc2ccc3oc(Cc4ccc(Cl)cc4)nc3c2)cc1	25 µg/mL (≈ 59.7 µM)	50 µg/mL (≈ 119 µM)	50 µg/mL (≈ 119 µM)	50 µg/mL (≈ 119 µM)	50 µg/mL (≈ 119 µM)	50 µg/mL (≈ 119 µM)	50 µg/mL (≈ 119 µM)
O=C(Cc1ccc(Br)cc1)Nc1ccc2oc(Cc3ccc(Cl)cc3)nc2c1	50 µg/mL (≈ 110 µM)	25 µg/mL (≈ 54.9 µM)	50 µg/mL (≈ 110 µM)	50 µg/mL (≈ 110 µM)	12.5 µg/mL (≈ 27.4 µM)	25 µg/mL (≈ 54.9 µM)	50 µg/mL (≈ 110 µM)
O=C(Cc1ccc(Cl)cc1)Nc1ccc2oc(Cc3ccc(Cl)cc3)nc2c1	50 µg/mL (≈ 122 µM)	25 µg/mL (≈ 60.8 µM)	50 µg/mL (≈ 122 µM)	25 µg/mL (≈ 60.8 µM)	50 µg/mL (≈ 122 µM)	6.25 µg/mL (≈ 15.2 µM)	12.5 µg/mL (≈ 30.4 µM)
O=C(Cc1ccc(Br)cc1)Nc1ccc2oc(Cc3ccccc3)nc2c1	25 µg/mL (≈ 59.3 µM)	25 µg/mL (≈ 59.3 µM)	25 µg/mL (≈ 59.3 µM)	25 µg/mL (≈ 59.3 µM)	25 µg/mL (≈ 59.3 µM)	12.5 µg/mL (≈ 29.7 µM)	3.12 µg/mL (≈ 7.41 µM)
O=C(Cc1ccccc1)Nc1ccc2oc(Cc3ccc(Cl)cc3)nc2c1	50 µg/mL (≈ 133 µM)	25 µg/mL (≈ 66.3 µM)	50 µg/mL (≈ 133 µM)	25 µg/mL (≈ 66.3 µM)	25 µg/mL (≈ 66.3 µM)	25 µg/mL (≈ 66.3 µM)	25 µg/mL (≈ 66.3 µM)
O=C(Cc1ccc(F)cc1)Nc1ccc2oc(Cc3ccccc3)nc2c1	50 µg/mL (≈ 139 µM)	25 µg/mL (≈ 69.4 µM)	25 µg/mL (≈ 69.4 µM)	25 µg/mL (≈ 69.4 µM)	50 µg/mL (≈ 139 µM)	12.5 µg/mL (≈ 34.7 µM)	12.5 µg/mL (≈ 34.7 µM)
CCc1ccc(C(=O)Nc2ccc3oc(Cc4ccc(Cl)cc4)nc3c2)cc1	50 µg/mL (≈ 128 µM)	50 µg/mL (≈ 128 µM)	50 µg/mL (≈ 128 µM)	50 µg/mL (≈ 128 µM)	25 µg/mL (≈ 64 µM)	25 µg/mL (≈ 64 µM)	25 µg/mL (≈ 64 µM)
O=C(Cc1ccc(F)cc1)Nc1ccc2oc(Cc3ccc(Cl)cc3)nc2c1	12.5 µg/mL (≈ 31.7 µM)	100 µg/mL (≈ 253 µM)	50 µg/mL (≈ 127 µM)	25 µg/mL (≈ 63.3 µM)	50 µg/mL (≈ 127 µM)	25 µg/mL (≈ 63.3 µM)	50 µg/mL (≈ 127 µM)

Other lines, results leading:

MIC (Staphylococcus aureus)	MIC (Bacillus subtilis)	MIC (Escherichia coli)	MIC (Pseudomonas aeruginosa)	MIC (Candida albicans)	MIC (Pichia kudriavzevii)	MIC (Nakaseomyces glabratus)	Compound
200 µg/mL (≈ 520 µM)	50 µg/mL (≈ 130 µM)	25 µg/mL (≈ 65 µM)	25 µg/mL (≈ 65 µM)	50 µg/mL (≈ 130 µM)	25 µg/mL (≈ 65 µM)	25 µg/mL (≈ 65 µM)	CC(C)(C)c1ccc(C(=O)Nc2ccc3oc(Cc4ccccc4)nc3c2)cc1
50 µg/mL (≈ 123 µM)	50 µg/mL (≈ 123 µM)	50 µg/mL (≈ 123 µM)	25 µg/mL (≈ 61.4 µM)	25 µg/mL (≈ 61.4 µM)	25 µg/mL (≈ 61.4 µM)	25 µg/mL (≈ 61.4 µM)	O=C(Nc1ccc2oc(Cc3ccccc3)nc2c1)c1ccc(Br)cc1
50 µg/mL (≈ 140 µM)	50 µg/mL (≈ 140 µM)	50 µg/mL (≈ 140 µM)	50 µg/mL (≈ 140 µM)	25 µg/mL (≈ 70.1 µM)	25 µg/mL (≈ 70.1 µM)	12.5 µg/mL (≈ 35.1 µM)	CCc1ccc(C(=O)Nc2ccc3oc(Cc4ccccc4)nc3c2)cc1
25 µg/mL (≈ 71.8 µM)	25 µg/mL (≈ 71.8 µM)	25 µg/mL (≈ 71.8 µM)	25 µg/mL (≈ 71.8 µM)	12.5 µg/mL (≈ 35.9 µM)	6.25 µg/mL (≈ 17.9 µM)	6.25 µg/mL (≈ 17.9 µM)	Cc1ccc(C(=O)Nc2ccc3oc(Cc4ccccc4)nc3c2)s1
50 µg/mL (≈ 140 µM)	50 µg/mL (≈ 140 µM)	50 µg/mL (≈ 140 µM)	25 µg/mL (≈ 70.1 µM)	25 µg/mL (≈ 70.1 µM)	50 µg/mL (≈ 140 µM)	50 µg/mL (≈ 140 µM)	Cc1ccc(C(=O)Nc2ccc3oc(Cc4ccccc4)nc3c2)cc1C
50 µg/mL (≈ 128 µM)	12.5 µg/mL (≈ 32 µM)	12.5 µg/mL (≈ 32 µM)	50 µg/mL (≈ 128 µM)	6.25 µg/mL (≈ 16 µM)	12.5 µg/mL (≈ 32 µM)	25 µg/mL (≈ 64 µM)	Cc1ccc(C)c(C(=O)Nc2ccc3oc(Cc4ccc(Cl)cc4)nc3c2)c1
12.5 µg/mL (≈ 32 µM)	25 µg/mL (≈ 64 µM)	50 µg/mL (≈ 128 µM)	50 µg/mL (≈ 128 µM)	100 µg/mL (≈ 256 µM)	12.5 µg/mL (≈ 32 µM)	50 µg/mL (≈ 128 µM)	Cc1ccc(C(=O)Nc2ccc3oc(Cc4ccc(Cl)cc4)nc3c2)cc1C
50 µg/mL (≈ 140 µM)	25 µg/mL (≈ 70.1 µM)	50 µg/mL (≈ 140 µM)	50 µg/mL (≈ 140 µM)	25 µg/mL (≈ 70.1 µM)	25 µg/mL (≈ 70.1 µM)	25 µg/mL (≈ 70.1 µM)	Cc1ccc(C)c(C(=O)Nc2ccc3oc(Cc4ccccc4)nc3c2)c1
50 µg/mL (≈ 144 µM)	25 µg/mL (≈ 72.2 µM)	50 µg/mL (≈ 144 µM)	25 µg/mL (≈ 72.2 µM)	12.5 µg/mL (≈ 36.1 µM)	50 µg/mL (≈ 144 µM)	25 µg/mL (≈ 72.2 µM)	O=C(Nc1ccc2oc(Cc3ccccc3)nc2c1)c1ccc(F)cc1
25 µg/mL (≈ 70.1 µM)	25 µg/mL (≈ 70.1 µM)	25 µg/mL (≈ 70.1 µM)	25 µg/mL (≈ 70.1 µM)	25 µg/mL (≈ 70.1 µM)	6.25 µg/mL (≈ 17.5 µM)	12.5 µg/mL (≈ 35.1 µM)	Cc1ccc(CC(=O)Nc2ccc3oc(Cc4ccccc4)nc3c2)cc1
